Laboratory results from patent US20260317324A1, “BIFUNCTIONAL COMPOUNDS FOR DEGRADING BRAF VIA UBIQUITIN PROTEOSOME PATHWAY” (Nurix Therapeutics, Inc., priority 2023, published 2026).

Tests used:
Type in all cases: cell-based
BRAF D594G = biological target: T1, BRAF D594G (Homo sapiens, UniProt P15056, D594G); assay: BRAF HiBiT degradation assay, C-terminal HiBiT-tagged BRAF D594G overexpressed in HCT-116 BRAF−/− cells (clone 63), Nano-Glo HiBiT Lytic assay; settings: BRAF D594G; for DC50: DC50 at 50%: fitted conc. at Y=50; for Dmax: HCT-116, percentage protein degraded at maximal compound effect relative to DMSO
T1 construct: Horizon Discovery (HCT-116 BRAF−/− cells); host or cells: HCT-116 BRAF−/− cells, clone 63, lentiviral transduction
T1 sequence (P15056 whole entry D594G): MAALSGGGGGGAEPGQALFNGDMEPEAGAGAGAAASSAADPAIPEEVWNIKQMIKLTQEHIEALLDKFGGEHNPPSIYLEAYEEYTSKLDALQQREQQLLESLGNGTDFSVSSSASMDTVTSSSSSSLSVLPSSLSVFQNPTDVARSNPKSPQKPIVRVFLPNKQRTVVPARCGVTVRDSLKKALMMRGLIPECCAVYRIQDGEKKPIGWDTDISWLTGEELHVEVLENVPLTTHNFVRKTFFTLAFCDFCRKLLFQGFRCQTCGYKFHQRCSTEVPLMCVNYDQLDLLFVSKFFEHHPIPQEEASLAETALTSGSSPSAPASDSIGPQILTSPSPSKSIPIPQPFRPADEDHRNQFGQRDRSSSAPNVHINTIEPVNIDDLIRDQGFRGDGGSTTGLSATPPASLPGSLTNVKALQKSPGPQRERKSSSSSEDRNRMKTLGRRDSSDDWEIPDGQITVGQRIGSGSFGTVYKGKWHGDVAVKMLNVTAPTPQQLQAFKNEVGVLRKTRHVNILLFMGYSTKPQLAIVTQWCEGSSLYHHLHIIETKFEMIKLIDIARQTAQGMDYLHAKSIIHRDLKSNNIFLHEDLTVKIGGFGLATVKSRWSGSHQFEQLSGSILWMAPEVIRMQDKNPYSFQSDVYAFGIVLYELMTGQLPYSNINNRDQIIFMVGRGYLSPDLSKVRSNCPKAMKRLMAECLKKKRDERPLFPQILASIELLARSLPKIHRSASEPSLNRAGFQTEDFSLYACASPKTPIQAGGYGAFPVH
Method in brief: (§1)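 Luminescence from the lytic HiBiT reagent, read after 10 min at room temperature, measured tagged BRAF remaining in lentivirally transduced HCT-116 BRAF−/− cells. Compounds were tested from 1 μM to 0.01 nM in half-log steps at 0.2% DMSO. DC50 values were fitted at 50% remaining.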

BRAF G466V = biological target: T2, BRAF G466V (Homo sapiens, UniProt P15056, G466V); assay: BRAF HiBiT degradation assay, C-terminal HiBiT-tagged BRAF G466V overexpressed in HCT-116 BRAF−/− cells (clone 8), Nano-Glo HiBiT Lytic assay; settings: BRAF G466V; for DC50: DC50 at 50%: fitted conc. at Y=50; for Dmax: HCT-116, percentage protein degraded at maximal compound effect relative to DMSO
T2 construct: Horizon Discovery (HCT-116 BRAF−/− cells); host or cells: HCT-116 BRAF−/− cells, clone 8, lentiviral transduction
T2 sequence (P15056 whole entry G466V): as the sequence (P15056 whole entry D594G) above, with G466V, G594D counted along it
Method in brief: as §1

BRAF G469A = biological target: T3, BRAF G469A (Homo sapiens, UniProt P15056, G469A); assay: BRAF HiBiT degradation assay, C-terminal HiBiT-tagged BRAF G469A overexpressed in HCT-116 BRAF−/− cells (clone 34), Nano-Glo HiBiT Lytic assay; settings: Class 2, BRAF G469A; for DC50: DC50 at 50%: fitted conc. at Y=50; for Dmax: HCT-116, percentage protein degraded at maximal compound effect relative to DMSO
T3 construct: Horizon Discovery (HCT-116 BRAF−/− cells); host or cells: HCT-116 BRAF−/− cells, clone 34, lentiviral transduction
T3 sequence (P15056 whole entry G469A): as the sequence (P15056 whole entry D594G) above, with G469A, G594D counted along it
Method in brief: as §1

BRAF V600E = biological target: T4, BRAF V600E (Homo sapiens, UniProt P15056, V600E); assay: BRAF HiBiT degradation assay, C-terminal HiBiT-tagged BRAF V600E A375 cells (clone 1F10), Nano-Glo HiBiT Lytic assay; settings: A375 (BRAF V600E); for DC50: DC50 at 50%: fitted conc. at Y=50; for Dmax: A-375, percentage protein degraded at maximal compound effect relative to DMSO
T4 construct: endogenous C-terminal HiBiT fusion tag on BRAF V600E allele; endogenous in cells; host or cells: A375 clone 1F10 (CRISPR-Cas9 knock-in of the HiBiT tag; parental A375 from ATCC)
T4 sequence (P15056 whole entry V600E, the tested form may be a part): as the sequence (P15056 whole entry D594G) above, with G594D, V600E counted along it
Method in brief: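 Endogenous BRAF V600E-HiBiT A375 (1F10), 10,000 cells/well, 24 h preculture; cpd 11-pt, 1 μM–0.01 nM half-log, n=2, 0.2% DMSO; HiBiT lytic detection 10 min RT; DC50 = fitted conc at Y=50; Obs. Dmax vs DMSO.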

Row | Compound | DC50 (BRAF D594G) [nM] | Dmax (BRAF D594G) [%] | DC50 (BRAF G466V) [nM] | Dmax (BRAF G466V) [%] | DC50 (BRAF G469A) [nM] | Dmax (BRAF G469A) [%] | DC50 (BRAF V600E) [nM] | Dmax (BRAF V600E) [%]
1 | CCCS(=O)(=O)Nc1cccc(-c2nc(C3CCN(C(=O)C4CCN(C(=O)C5CCN(c6ccc(C7CCC(=O)NC7=O)cn6)CC5)CC4)CC3)sc2-c2ccnc(NC)n2)c1F (racemic) [Compound 212, Rac-N-[3-(2-{1-[1-(1-{5-[(3R)-2,6-dioxopiperidin-3-yl]pyridin-2-yl}piperidine-4-carbonyl)piperidine-4-carbonyl]piperidin-4-yl}-5-[2-(methylamino)pyrimidin-4-yl]-1,3-thiazol-4-yl)-2-fluorophenyl]propane-1-sulfonamide] | < 10 | 30 to 70 | < 10 | 30 to 70 | 10 to 50 | 30 to 70 | < 10 | > 70
2 | CCCS(=O)(=O)Nc1cccc(-c2nc(C3CCN(C4CN(C(=O)CC5CCN(c6ccc(C7CCC(=O)NC7=O)cc6)CC5)C4)CC3)sc2-c2ccnc(N)n2)c1F (racemic) [Compound 215, Rac-N-{3-[5-(2-aminopyrimidin-4-yl)-2-(1-{1-[2-(1-{4-[(3R)-2,6-dioxopiperidin-3-yl]phenyl}piperidin-4-yl)acetyl]azetidin-3-yl}piperidin-4-yl)-1,3-thiazol-4-yl]-2-fluorophenyl}propane-1-sulfonamide] | > 500 | < 30 | > 500 | < 30 | > 500 | < 30 | 10 to 50 | > 70
3 | CCCS(=O)(=O)Nc1cccc(-c2nc(C3CCN(C(=O)C4CCN(CC5CCN(c6ccc(C7CCC(=O)NC7=O)cn6)CC5)CC4)CC3)sc2-c2ccnc(NC)n2)c1F (racemic) [Compound 217, Rac-N-{3-[2-(1-{1-[(1-{5-[(3R)-2,6-dioxopiperidin-3-yl]pyridin-2-yl}piperidin-4-yl)methyl]piperidine-4-carbonyl}piperidin-4-yl)-5-[2-(methylamino)pyrimidin-4-yl]-1,3-thiazol-4-yl]-2-fluorophenyl}propane-1-sulfonamide] | > 500 | 30 to 70 | > 500 | 30 to 70 | > 500 | < 30 | 10 to 50 | > 70
4 | CCCS(=O)(=O)Nc1cccc(-c2nc(C3CCN(C(=O)CN4CCC5(CC4)CN(c4ccc6c(c4)C(=O)N(C4CCC(=O)NC4=O)C6=O)C5)CC3)sc2-c2ccnc(NC)n2)c1F (racemic) [Compound 219, Rac-N-[3-(2-{1-[2-(2-{2-[(3R)-2,6-dioxopiperidin-3-yl]-1,3-dioxo-2,3-dihydro-1H-isoindol-5-yl}-2,7-diazaspiro[3.5]nonan-7-yl)acetyl]piperidin-4-yl}-5-[2-(methylamino)pyrimidin-4-yl]-1,3-thiazol-4-yl)-2-fluorophenyl]propane-1-sulfonamide] | > 500 | 30 to 70 | < 10 | 30 to 70 | > 500 | 30 to 70 | < 10 | > 70
5 | CCCS(=O)(=O)Nc1cccc(-c2nc(C3CCN(C(=O)C4CCN(C(=O)C5CCN(c6ccc(C7CCC(=O)NC7=O)cn6)CC5)CC4)CC3)sc2-c2ccncn2)c1F (racemic) [Compound 220, Rac-N-[3-(2-{1-[1-(1-{5-[(3R)-2,6-dioxopiperidin-3-yl]pyridin-2-yl}piperidine-4-carbonyl)piperidine-4-carbonyl]piperidin-4-yl}-5-(pyrimidin-4-yl)-1,3-thiazol-4-yl)-2-fluorophenyl]propane-1-sulfonamide] | < 10 | 30 to 70 | 10 to 50 | 30 to 70 | > 500 | 30 to 70 | < 10 | > 70
6 | CCCS(=O)(=O)Nc1cccc(-c2nc(C3CCN(C(=O)C4CCN(CC5CCN(c6ccc(C7CCC(=O)NC7=O)cn6)CC5)CC4)CC3)sc2-c2ccncn2)c1F (racemic) [Compound 221, Rac-N-{3-[2-(1-{1-[(1-{5-[(3R)-2,6-dioxopiperidin-3-yl]pyridin-2-yl}piperidin-4-yl)methyl]piperidine-4-carbonyl}piperidin-4-yl)-5-(pyrimidin-4-yl)-1,3-thiazol-4-yl]-2-fluorophenyl}propane-1-sulfonamide] | > 500 | 30 to 70 | > 500 | 30 to 70 | > 500 | 30 to 70 | 10 to 50 | > 70
7 | CCCS(=O)(=O)Nc1cccc(-c2nc(C3CCN(CC4CCN(C(=O)[C@H]5CC[C@H](Oc6ccc(C7CCC(=O)NC7=O)cc6)CC5)CC4)CC3)sc2-c2ccnc(N)n2)c1F (mixture of isomers) [Compound 224, N-{3-[5-(2-aminopyrimidin-4-yl)-2-[1-({1-[(1r,4r)-4-{4-[(3RS)-2,6-dioxopiperidin-3-yl]phenoxy}cyclohexanecarbonyl]piperidin-4-yl}methyl)piperidin-4-yl]-1,3-thiazol-4-yl]-2-fluorophenyl}propane-1-sulfonamide] | > 500 | 30 to 70 | > 500 | 30 to 70 | > 500 | < 30 | < 10 | > 70
8 | CCCS(=O)(=O)Nc1cccc(-c2nc(C3CCN(CC4CCN(C[C@H]5CC[C@H](Oc6ccc(C7CCC(=O)NC7=O)cc6)CC5)CC4)CC3)sc2-c2ccnc(N)n2)c1F (mixture of isomers) [Compound 225, N-{3-[5-(2-aminopyrimidin-4-yl)-2-{1-[(1-{[(1r,4r)-4-{4-[(3RS)-2,6-dioxopiperidin-3-yl]phenoxy}cyclohexyl]methyl}piperidin-4-yl)methyl]piperidin-4-yl}-1,3-thiazol-4-yl]-2-fluorophenyl}propane-1-sulfonamide] | > 500 | 30 to 70 | > 500 | 30 to 70 | > 500 | < 30 | 10 to 50 | > 70
9 | CCCS(=O)(=O)Nc1cccc(-c2nc(C3(C)CCN(C(=O)C4CCN(CC5CCN(c6ccc(C7CCC(=O)NC7=O)cc6)CC5)CC4)CC3)sc2-c2ccnc(N)n2)c1F (racemic) [Compound 227, Rac-N-{3-[5-(2-aminopyrimidin-4-yl)-2-(1-{1-[(1-{4-[(3R)-2,6-dioxopiperidin-3-yl]phenyl}piperidin-4-yl)methyl]piperidine-4-carbonyl}-4-methylpiperidin-4-yl)-1,3-thiazol-4-yl]-2-fluorophenyl}propane-1-sulfonamide] | > 500 | 30 to 70 | > 500 | 30 to 70 | > 500 | 30 to 70 | < 10 | > 70
10 | CCCS(=O)(=O)Nc1cccc(-c2nc(C3CCC4(CC3)CN(C(=O)CCCCCc3ccc5c(c3)C(=O)N(C3CCC(=O)NC3=O)C5)C4)sc2-c2ccnc(N)n2)c1F (racemic) [Compound 234, Rac-N-{3-[5-(2-aminopyrimidin-4-yl)-2-[2-(6-{2-[(3R)-2,6-dioxopiperidin-3-yl]-3-oxo-2,3-dihydro-1H-isoindol-5-yl}hexanoyl)-2-azaspiro[3.5]nonan-7-yl]-1,3-thiazol-4-yl]-2-fluorophenyl}propane-1-sulfonamide] | < 10 | 30 to 70 | 10 to 50 | 30 to 70 | > 500 | < 30 | < 10 | > 70
11 | CCCS(=O)(=O)Nc1cccc(-c2nc(C3CCC4(CC3)CCN(C(=O)CCCCCc3ccc5c(c3)C(=O)N(C3CCC(=O)NC3=O)C5)CC4)sc2-c2ccnc(N)n2)c1F (racemic) [Compound 235, Rac-N-{3-[5-(2-aminopyrimidin-4-yl)-2-[3-(6-{2-[(3R)-2,6-dioxopiperidin-3-yl]-3-oxo-2,3-dihydro-1H-isoindol-5-yl}hexanoyl)-3-azaspiro[5.5]undecan-9-yl]-1,3-thiazol-4-yl]-2-fluorophenyl}propane-1-sulfonamide] | > 500 | 30 to 70 | > 500 | 30 to 70 | > 500 | 30 to 70 | < 10 | > 70
